Results reported in US10829798B2, “DNA-linked enzyme-coupled assays” (THE REGENTS OF THE UNIVERSITY OF CALIFORNIA, priority 2014, dated 2020).

Target: T1, OleD (Streptomyces antibioticus, UniProt Q53685, P55A/R82V/R83E/T84P)
T1 construct: made in house; host or cells: PURExpress In Vitro Protein Synthesis Kit (NEB E6800L), cell-free transcription/translation, linear DNA with T7 promoter
Assay: DLEnCA with purified recombinant OleD, agarose gel readout of MfeI digestion of probe DNA
Type: biochemical
Conditions: purified OleD 0.5 μM, acceptor 0.5 mM, 2% agarose gel
Procedure: FIG. 2A-FIG. 2D. DNA-Linked Enzyme-Coupled Assay using purified model enzyme (OleD). A. The OleD-catalyzed glucosylation of kaempferol using UDP-Glc as a donor-molecule. B. Purified recombinant OleD (0.5 μM) was incubated with probe DNA (4.5 nM) in the presence of kaempferol (0.5 mM) and various concentrations of UDP-Glc at 37° C. for 1 hour. Following incubation with TbGT, DNA was digested with MfeI. Digests were analyzed on a 2% agarose gel. […] (ii) A representative gel of the UDP-Glc titration reaction, as-well-as a “ladder” depicting expected DNA digestion sizes, is shown. C. […] Digests were analyzed on a 2% agarose gel (n=4). […] Digests were analyzed on a 2% agarose gel (n=4). […]
In order to verify that DNA protection using TbGT could be used to follow an enzymatic reaction under conditions amenable to downstream DNA analyses, the ability of recombinant OleD to reduce concentrations of UDP-Glc while in the presence of the substrate kaempferol was first tested. […] To identify if this reaction could be monitored by modification of DNA, recombinant OleD was purified (FIG. 5) and incubated with 5-hm-cytosine-modified probe DNA (4.5 nM probe DNA containing 2.5 μM modified 5-hm-cytosines), kaempferol (0.5 mM), and UDP-Glc concentrations varying from 10 μM to 1 mM in a buffered solution. […]

T1 sequence (Q53685 other isoform, or with tags, fused parts or gaps P55A/R82V/R83E/T84P): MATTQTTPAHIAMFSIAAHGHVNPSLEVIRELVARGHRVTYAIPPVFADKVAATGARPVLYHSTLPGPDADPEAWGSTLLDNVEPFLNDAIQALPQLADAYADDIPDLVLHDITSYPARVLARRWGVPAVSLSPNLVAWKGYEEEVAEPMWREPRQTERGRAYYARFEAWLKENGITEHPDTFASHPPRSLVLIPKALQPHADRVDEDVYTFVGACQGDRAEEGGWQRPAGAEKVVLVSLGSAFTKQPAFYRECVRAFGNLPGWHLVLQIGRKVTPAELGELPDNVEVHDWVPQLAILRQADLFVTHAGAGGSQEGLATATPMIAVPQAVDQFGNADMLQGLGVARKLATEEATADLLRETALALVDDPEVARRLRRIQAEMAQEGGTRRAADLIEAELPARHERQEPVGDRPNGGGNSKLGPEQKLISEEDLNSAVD

SMILES | digestion of probe DNA by MfeI (loss of TbGT protection) (UDP-Glc titration) | digestion of probe DNA by MfeI (loss of TbGT protection) (20 μM starting UDP-Glc, all components present)
O=C(O)c1ccc(O)cc1 [XI, 4-hydroxybenzoic acid] | no DNA was digested | –
O=c1c(O)c(-c2ccc(O)cc2)oc2cc(O)cc(O)c12 [I, kaempferol] | – | significant DNA digestion occurred
